We go through one compound from patent US20260256826A1, “PREPARATION METHOD AND APPLICATION OF ZINC HYALURONATE” (BLOOMAGE BIOTECHNOLOGY CORPORATION LIMITED, priority 2022, published 2026).

Test [1] can be described thus: Superoxide anion scavenging, pyrogallol self-oxidation method. Conditions: 0.5% solution. As to the method:
The pyrogallol self-oxidation method was used. Under weakly alkaline conditions, pyrogallol can undergo self-oxidation reaction to generate superoxide anions and a colored intermediate product with a characteristic absorption peak at 320 nm. In the initial trial stage, the amount of intermediate product is linearly related to time. Since the self-oxidation rate depends on the concentration of superoxide anions, when a superoxide anion scavenger is added, it can react quickly with superoxide anions to inhibit the self-oxidation reaction, thereby preventing the accumulation of intermediates and weakening the light absorption of the solution at 320 nm. Therefore, the scavenging effect of the scavenger on superoxide anions can be evaluated by measuring the […] value. scavenging rate of superoxide anion free radical (%)=(A0-Ax)/A0×100%

Test [2] can be described thus: Hydroxyl radical scavenging, salicylic acid method. Conditions: 0.5% solution. An excerpt: The salicylic acid method was used to determine the hydroxyl radical scavenging ability of zinc hyaluronate samples. A certain amount of H2O2 and FeSO4 were mixed to produce hydroxyl radicals by Fenton reaction. Adding salicylic acid to the reaction system can capture hydroxyl radicals and produce 3-hydroxysalicylic acid and 5-hydroxysalicylic acid. Both products have strong absorption at 510 nm. The reaction equation is as follows: The addition of the sample will compete with salicylic acid for the reaction with OH, thereby reducing the production of 3-hydroxysalicylic acid and 5-hydroxysalicylic acid. The fixed reaction time method was used to measure the absorbance of the reaction solution at 510 nm and compare it with the blank solution to determine the scavenging effect of the analyte on hydroxyl free radicals. The scavenging rate is calculated as follows: In the formula, S is the scavenging rate, A0 is the absorbance value of the blank control, Ax is the absorbance value when the sample is added, and Ax0 is the absorbance value without adding the color developer.

Take `CC(=O)[O-].CC(=O)[O-].[Zn+2]` [zinc acetate dihydrate]: the “superoxide anion free radical scavenging ability (in words)” value in test [1] is recorded as “significantly lower than that of HA-Zn”. In test [2], the “hydroxyl free radical scavenging ability (in words)” value is listed as “significantly lower than that of HA-Zn”.
